Laboratory results published in US20180171280A1, “CELL CULTURE EXPOSURE SYSTEM (CCES)” (priority 2016, published 2018).

What was measured:
[1] = system: Human primary lung cells; assay: CellTiter-Glo Luminescent Cell Viability Assay after ALI exposure in the CCES, human primary lung cells; format: cell-based; conditions: 2 h ALI exposure, 4 h post-exposure, Inc. Ct. = 100; for CellTiter-Glow viability, Average: average of 3 experiments
Description: (§1) The Cell Culture Exposure System (CCES) provides the ability to expose cultured mammalian cells to airborne chemicals at ALI conditions in a 24-well format.
Human primary lung cells were collected by cytology brush biopsy during bronchoscopy at EPA clinical facility in Chapel Hill. Cells were cultured by standard procedures and were provided to EPA/RTP.
Cells were cultured and plated onto Transwell membranes and grown out for 28 days as described in OP.
(§2) Cells were placed into new 24-well plates with fresh growth media and put at ALI 2 h prior to exposure. […] Control cells were exposed simultaneously to clean air for 2 h in a separate chamber. Another set of control cells were kept at ALI in an incubator (37° C., 5% CO2) for 2 h. After the exposure, cells were placed in an incubator (37° C., 5% CO2) for 4 h. A total of three exposures were conducted for each cell type.
(§3) The CellTiter-Glo® Luminescent Cell Viability Assay (Promega) determines the number of viable cells based on quantification of the ATP present; an indicator of metabolically active cells. […] Two inserts per exposure condition were measured for each run.

[2] = system: BEAS-2B cells; assay: CellTiter-Glo Luminescent Cell Viability Assay after ALI exposure in the CCES, BEAS-2B cells; format: cell-based, human; conditions: 2 h ALI exposure, 4 h post-exposure, Inc. Ct. = 100; for CellTiter-Glow viability, Average: average of 3 experiments
Description: as §1
The BEAS-2B cell line, obtained from ATTC, is an immortalized human bronchial epithelial lung cell.
Cells were grown out on T75 cm^2 flasks in complete Keratinocyte Growth Media (KGM) (KGM-Gold Bullet Kit, Lonza®). Cells were passaged and seeded onto 6.5 mm (24-well format) permeable (0.4-μm pore size) Transwell polyester membranes at passages 55 and 56. Prior to seeding, Transwells were coated with PureCol® bovine collagen (Advanced Biometrix) at a density of 10 μg/cm^2. Cells were seeded at 3.0×10^4 cells per Transwell membranes 48 h prior to exposure and at 1.5×10^4 per Transwell membrane 72 h prior to exposure to obtain a confluent monolayer. Cells were seeded on 4 inserts per exposure condition for each run.
as §2, §3

C=CC=C [1,3-Butadiene, 1,3-butadiene]
CellTiter-Glow viability, May 3, 2017 ([1]; 0.16 ppm): 110.9
CellTiter-Glow viability, May 4, 2017 ([1]; 0.16 ppm): 99.9
CellTiter-Glow viability, May 5, 2017 ([1]; 0.16 ppm): 90.1
CellTiter-Glow viability, Average ([1]; 0.16 ppm): 100.3
CellTiter-Glow viability, May 3, 2017 ([1]; 0.5 ppm): 118.5
CellTiter-Glow viability, May 4, 2017 ([1]; 0.5 ppm): 86.3
CellTiter-Glow viability, May 5, 2017 ([1]; 0.5 ppm): 94.2
CellTiter-Glow viability, Average ([1]; 0.5 ppm): 99.6
CellTiter-Glow viability, May 3, 2017 ([1]; 1.7 ppm): 120.3
CellTiter-Glow viability, May 4, 2017 ([1]; 1.7 ppm): 91.8
CellTiter-Glow viability, May 5, 2017 ([1]; 1.7 ppm): 101.4
CellTiter-Glow viability, Average ([1]; 1.7 ppm): 104.5
CellTiter-Glow viability, May 3, 2017 ([1]; 5 ppm): 122.0
CellTiter-Glow viability, May 4, 2017 ([1]; 5 ppm): 112.0
CellTiter-Glow viability, May 5, 2017 ([1]; 5 ppm): 98.6
CellTiter-Glow viability, Average ([1]; 5 ppm): 110.8
CellTiter-Glow viability, May 3, 2017 ([1]; 16 ppm): 128.1
CellTiter-Glow viability, May 4, 2017 ([1]; 16 ppm): 101.3
CellTiter-Glow viability, May 5, 2017 ([1]; 16 ppm): 98.9
CellTiter-Glow viability, Average ([1]; 16 ppm): 109.4
CellTiter-Glow viability, May 3, 2017 ([1]; 50 ppm): 104.7
CellTiter-Glow viability, May 4, 2017 ([1]; 50 ppm): 92.7
CellTiter-Glow viability, May 5, 2017 ([1]; 50 ppm): 95.4
CellTiter-Glow viability, Average ([1]; 50 ppm): 97.6
CellTiter-Glow Viability, May 10, 2017 ([2]; 0.16 ppm): 96.27
CellTiter-Glow Viability, May 11, 2017 ([2]; 0.16 ppm): 87.14
CellTiter-Glow Viability, May 12, 2017 ([2]; 0.16 ppm): 96.95
CellTiter-Glow viability, Average ([2]; 0.16 ppm): 93.45
CellTiter-Glow Viability, May 10, 2017 ([2]; 0.5 ppm): 101.8
CellTiter-Glow Viability, May 11, 2017 ([2]; 0.5 ppm): 89.3
CellTiter-Glow Viability, May 12, 2017 ([2]; 0.5 ppm): 96.1
CellTiter-Glow viability, Average ([2]; 0.5 ppm): 95.73
CellTiter-Glow Viability, May 10, 2017 ([2]; 1.7 ppm): 94.35
CellTiter-Glow Viability, May 11, 2017 ([2]; 1.7 ppm): 94.49
CellTiter-Glow Viability, May 12, 2017 ([2]; 1.7 ppm): 95.83
CellTiter-Glow viability, Average ([2]; 1.7 ppm): 94.89
CellTiter-Glow Viability, May 10, 2017 ([2]; 5 ppm): 105.3
CellTiter-Glow Viability, May 11, 2017 ([2]; 5 ppm): 81.9
CellTiter-Glow Viability, May 12, 2017 ([2]; 5 ppm): 96.8
CellTiter-Glow viability, Average ([2]; 5 ppm): 94.66
CellTiter-Glow Viability, May 10, 2017 ([2]; 16 ppm): 101.5
CellTiter-Glow Viability, May 11, 2017 ([2]; 16 ppm): 87.31
CellTiter-Glow Viability, May 12, 2017 ([2]; 16 ppm): 79.14
CellTiter-Glow viability, Average ([2]; 16 ppm): 89.33
CellTiter-Glow Viability, May 10, 2017 ([2]; 50 ppm): 105.1
CellTiter-Glow Viability, May 11, 2017 ([2]; 50 ppm): 71.1
CellTiter-Glow Viability, May 12, 2017 ([2]; 50 ppm): 9.72
CellTiter-Glow viability, Average ([2]; 50 ppm): 61.99
